Data published in US20250230193A1, “CYCLIC COMPOUND HAVING SELECTIVE KRAS INHIBITORY EFFECT ON HRAS AND NRAS” (CHUGAI SEIYAKU KABUSHIKI KAISHA, priority 2022, published 2025).
*1 amine or outer side, *2 acyl side, *3 side chain or, on linkers, in order; H or OH if unused. Where a SMILES comes first, the peptide text is derived from it. Bridges are numbered along the chain shown (N, C = ends). [ ]: non-standard residue; d: D form. The star is where a group is joined. hPhe(3,5-F2-4-CF3) = N[C@@H](CCc1cc(F)c(C(F)(F)F)c(F)c1)C(=O)O; NPrPhe(4-CF3) = CCCN[C@@H](Cc1ccc(C(F)(F)F)cc1)C(=O)O; NMeGly(cPent) = CN[C@H](C(=O)O)C1CCCC1; X9 = C[C@@](N[*:1])(C(=O)[*:2])C1CC1; NMeD = CN[C@@H](CC(=O)O)C(=O)O; NMeL = CN[C@@H](CC(C)C)C(=O)O; Morpholide = C1CN(*)CCO1; Aze = O=C(O)[C@@H]1CCN1; Sar = CNCC(=O)O

How the values were obtained:
[1] = target: GDP-bound NRAS wild-type protein (Homo sapiens, UniProt P01111); experiment: Binding to NRAS by surface plasmon resonance (SPR), Single Cycle Kinetics; details: for NRAS/KRAS (ratio of KD value with respect to NRAS to KD value with respect to KRAS): GDP-bound NRAS wild-type vs GDP-bound KRAS wild-type
Chain of GDP-bound NRAS wild-type protein (P01111 whole entry): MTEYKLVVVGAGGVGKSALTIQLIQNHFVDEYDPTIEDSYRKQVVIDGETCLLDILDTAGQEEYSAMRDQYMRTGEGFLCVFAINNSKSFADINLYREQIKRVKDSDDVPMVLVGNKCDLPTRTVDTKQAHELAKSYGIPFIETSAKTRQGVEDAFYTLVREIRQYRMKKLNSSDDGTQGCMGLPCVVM

[2] = target: GDP-bound HRAS wild-type protein (Homo sapiens, UniProt P01112); experiment: Binding to HRAS by surface plasmon resonance (SPR), Single Cycle Kinetics; details: for HRAS/KRAS (ratio of KD value with respect to HRAS to KD value with respect to KRAS): GDP-bound HRAS wild-type vs GDP-bound KRAS wild-type
Chain of GDP-bound HRAS wild-type protein (P01112 whole entry): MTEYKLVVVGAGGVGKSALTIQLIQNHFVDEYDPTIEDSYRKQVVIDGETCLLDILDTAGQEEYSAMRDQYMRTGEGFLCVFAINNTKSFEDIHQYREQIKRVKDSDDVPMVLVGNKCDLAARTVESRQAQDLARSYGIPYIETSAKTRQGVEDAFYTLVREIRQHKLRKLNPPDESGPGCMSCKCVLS

SMILES: CCO[C@@H]1C[C@H]2C(=O)NC3(CCC(F)(F)CC3)C(=O)N(C)[C@@H](C3CCCC3)C(=O)N(C)[C@H](C(=O)N(C)C)CC(=O)N(C)[C@@H](C)C(=O)N[C@@H]([C@@H](C)CC)C(=O)N(C)CC(=O)N(C)[C@H]3CCCCCN(C3=O)[C@@H](Cc3ccc(C(F)(F)F)cc3)C(=O)N(C)CC(=O)N[C@@H](CCc3cc(F)c(C(F)(F)F)c(F)c3)C(=O)N2C1 [PP0725]
- NRAS/KRAS (ratio of KD value with respect to GDP-bound NRAS wild-type protein to KD value with respect to KRAS) ([1]; SPR): B (a compound having 3 or more and less than 10 is denoted as B)
- HRAS/KRAS (ratio of KD value with respect to GDP-bound HRAS wild-type protein to KD value with respect to KRAS) ([2]; SPR): B (a compound having 3 or more and less than 10 is denoted as B)

SMILES: CC[C@H](C)[C@@H]1NC(=O)[C@H](CC(C)C)N(C)C(=O)C[C@@H](C(=O)N2CCOCC2)N(C)C(=O)[C@H](C2CCCC2)N(C)C(=O)C2(CCC2)NC(=O)[C@@H]2[C@H](O)CCN2C(=O)[C@H](CCc2cc(F)c(C(F)(F)F)c(F)c2)NC(=O)CN(C)C(=O)[C@H](Cc2ccc(C(F)(F)F)cc2)N2CCCCC[C@@H](C2=O)N(C)C(=O)CN(C)C1=O [PP0873]
- NRAS/KRAS (ratio of KD value with respect to NRAS to KD value with respect to KRAS) ([1]; KD ratio, SPR): A (a compound having 10 or more and less than 20 is denoted as A)
- HRAS/KRAS (ratio of KD value with respect to HRAS to KD value with respect to KRAS) ([2]; KD ratio, SPR): B (a compound having 3 or more and less than 10 is denoted as B)

SMILES: CC[C@H](C)[C@@H]1NC(=O)[C@H](COC)N(C)C(=O)C[C@@H](C(=O)N2CCCCC2)N(C)C(=O)[C@H](C2CCCC2)N(C)C(=O)C2(CC(C)(C)C2)NC(=O)[C@@H]2C[C@@H](OC3CCC3)CN2C(=O)[C@H](CCc2cc(F)c(C(F)(F)F)c(F)c2)NC(=O)CN(C)C(=O)[C@H](Cc2ccc(C(F)(F)F)cc2)N2CC/C=C\C[C@@H](C2=O)N(C)C(=O)CN(C)C1=O [PP2664]
- NRAS/KRAS (ratio of KD value with respect to GDP-bound NRAS wild-type protein to KD value with respect to KRAS) ([1]; class symbols): A (a compound having 10 or more and less than 20 is denoted as A)
- HRAS/KRAS (ratio of KD value with respect to GDP-bound HRAS wild-type protein to KD value with respect to KRAS) ([2]; class symbols): B (a compound having 3 or more and less than 10 is denoted as B)

SMILES: CCO[C@@H]1C[C@H]2C(=O)NC3(CCC3)C(=O)N(C)[C@@H](C3CCCC3)C(=O)N(C)[C@H](C(=O)N(C)C)CC(=O)N(C)[C@@H](CC)C(=O)N[C@@H]([C@@H](C)CC)C(=O)N(C)CC(=O)N(C)[C@H]3CCCCN(C3=O)[C@@H](Cc3ccc(C(F)(F)F)cc3)C(=O)N(C)CC(=O)N[C@@H](CCc3ccc(Cl)c(Cl)c3)C(=O)N2C1 [PP0987]
- NRAS/KRAS (ratio of KD value with respect to NRAS to KD value with respect to KRAS) ([1]; KD ratio, SPR): C (A compound having a KD ratio of 0.1 or more and less than 3 is denoted as C)
- HRAS/KRAS (ratio of KD value with respect to HRAS to KD value with respect to KRAS) ([2]; KD ratio, SPR): C (A compound having a KD ratio of 0.1 or more and less than 3 is denoted as C)

SMILES: CCCN1C(=O)[C@@H]2CCN2C(=O)CN(C)C(=O)[C@H]([C@@H](C)CC)NC(=O)[C@H](CC(C)C)N(C)C(=O)C[C@@H](C(=O)N2CCOCC2)N(C)C(=O)[C@H](C2CCCC2)N(C)C(=O)[C@](C)(C2CC2)NC(=O)[C@@H]2CCCN2C(=O)[C@H](CCc2cc(F)c(C(F)(F)F)c(F)c2)NC(=O)CN(C)C(=O)[C@@H]1Cc1ccc(C(F)(F)F)cc1 [PP0791] ([NMeL]I[Sar][Aze][NPrPhe(4-CF3)][Sar][hPhe(3,5-F2-4-CF3)]P[X9][NMeGly(cPent)][NMeD]-Morpholide; lactam N-11)
- NRAS/KRAS (ratio of KD value with respect to GDP-bound NRAS wild-type protein to KD value with respect to KRAS) ([1]; SPR): C (A compound having a KD ratio of 0.1 or more and less than 3 is denoted as C)
- HRAS/KRAS (ratio of KD value with respect to GDP-bound HRAS wild-type protein to KD value with respect to KRAS) ([2]; SPR): B (a compound having 3 or more and less than 10 is denoted as B)

SMILES: CCCOC[C@H]1C(=O)N[C@@H]([C@@H](C)CC)C(=O)N(C)CC(=O)N(C)[C@H]2C/C=C\CCN(C2=O)[C@@H](CC2CCC(F)(F)CC2)C(=O)N(C)CC(=O)N[C@@H](CCc2ccc(C(F)(F)F)c(Cl)c2)C(=O)N2C[C@H](OCC)C[C@H]2C(=O)NC2(CC(C)(C)C2)C(=O)N(C)[C@@H](C(CC)CC)C(=O)N(C)[C@H](C(=O)N(C)C)CC(=O)N1C [PP2484]
- NRAS/KRAS (ratio of KD value with respect to NRAS to KD value with respect to KRAS) ([1]; SPR): A (a compound having 10 or more and less than 20 is denoted as A)
- HRAS/KRAS (ratio of KD value with respect to HRAS to KD value with respect to KRAS) ([2]; SPR): A (a compound having 10 or more and less than 20 is denoted as A)

SMILES: CCC[C@H]1C(=O)N[C@@H]([C@@H](C)CC)C(=O)N(C)CC(=O)N(C)[C@H]2CCCCCN(C2=O)[C@@H](Cc2ccc(C(F)(F)F)cc2)C(=O)N(C)CC(=O)N[C@@H](CCc2cc(F)c(C(F)(F)F)c(F)c2)C(=O)N2C[C@H](OCC)C[C@H]2C(=O)NC2(CCC2)C(=O)N(C)[C@@H](C2CCCC2)C(=O)N(C)[C@H](C(=O)N2CCOCC2)CC(=O)N1C [PP0679]
- NRAS/KRAS (ratio of KD value with respect to GDP-bound NRAS wild-type protein to KD value with respect to KRAS) ([1]; SPR): B (a compound having 3 or more and less than 10 is denoted as B)
- HRAS/KRAS (ratio of KD value with respect to GDP-bound HRAS wild-type protein to KD value with respect to KRAS) ([2]; SPR): B (a compound having 3 or more and less than 10 is denoted as B)
